Reference: publication PMC11111408, “Concurrent inhibition of oncogenic and wild-type RAS-GTP for cancer therapy” (Nature, 2024)
Where “and” joins values, the source holds several entries; their conditions need not be identical. Equal entries are not always repeated.

Columns and labels:
[1] = target: T1, WT KRAS (Homo sapiens, UniProt P01116+P62937); experiment: KRAS–RALGDS RID binding inhibition in vitro; format: biochemical; design: TR-FRET of recombinant KRAS and RALGDS RID: scale not given here; conditions: for TR-FRET of recombinant KRAS and RALGDS RID: single replicates
T1 construct: His6-TEV (N); made in house; host or cells: E. coli BL21(DE3)

[2] = system: CT26 syngeneic tumours engineered to express KRAS^G12C; experiment: Immune cell response in eCT26 KRAS^G12C syngeneic tumours; format: in vivo, mouse; conditions: 24 hours post 4 days of treatment, 25 mg/kg PO QD, individual mice
Method: Tumor tissue was minced, processed with the Dri Tumor & Tissue Dissociation Reagent from BD Biosciences and homogenized with the gentleMACS™ Dissociator. Tumor cell suspensions were incubated at 4°C for 30 minutes with Mouse BD Fc Block (Clone 2.4G2 from BD Pharmingen), 10 minutes with Blue Dead Cell Stain Kit (Invitrogen) and 30 min in cell staining buffer. […] Cells were analyzed on a 4-laser Cytek Aurora (Cytek Biosciences), and data analysis was done using SpectroFlo (Cytek Biosciences) and FlowJo (FlowJo LLC.).

[3] = target: T2, GMPPNP–KRAS (Homo sapiens, UniProt P01116, G12C); experiment: SPR binding of RMC-7977 to KRAS in the absence of CYPA; conditions: compound alone without CYPA
T2 construct: His6-TEV (N); made in house; host or cells: E. coli BL21(DE3)

[4] = target: T3, MRAS and other RAS family small GTPase proteins (Homo sapiens, UniProt P10301, G38V); experiment: Cellular BRET between CYPA and small GTPases (RIT1, MRAS, RRAS, RRAS2, Rheb); format: cell-based; conditions: RRAS G38V, single replicates
T3 construct: expressed in transfected cells; host or cells: U2OS PPIA-KO
T3 sequence (P10301 1-218 G38V): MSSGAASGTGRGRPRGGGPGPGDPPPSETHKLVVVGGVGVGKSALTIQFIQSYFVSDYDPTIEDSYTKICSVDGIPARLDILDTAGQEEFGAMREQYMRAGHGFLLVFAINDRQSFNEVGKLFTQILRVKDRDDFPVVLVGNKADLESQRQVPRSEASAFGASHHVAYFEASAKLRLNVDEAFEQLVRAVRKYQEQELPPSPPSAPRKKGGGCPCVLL

CCn1c(-c2cc(N3CCN(C4CC4)CC3)cnc2[C@H](C)OC)c2c3cc(ccc31)-c1csc(n1)C[C@H](NC(=O)[C@H]1[C@@H]3COC[C@@H]31)C(=O)N1CCC[C@H](N1)C(=O)OCC(C)(C)C2 [RMC-7977]
TR-FRET of recombinant KRAS and RALGDS RID ([1]; RMC-7977 0.005 nM with CYPA): 1.077 and 1.051 and 1.011 and 0.9577 | TR-FRET of recombinant KRAS and RALGDS RID ([1]; RMC-7977 0.046 nM with CYPA): 0.9855 and 0.9772 and 0.9315 and 0.827 | TR-FRET of recombinant KRAS and RALGDS RID ([1]; RMC-7977 0.412 nM with CYPA): 0.9473 and 0.8792 and 0.8105 and 0.8965 | TR-FRET of recombinant KRAS and RALGDS RID ([1]; RMC-7977 1.235 nM with CYPA): 0.966 and 0.9012 and 0.7562 and 0.8255 | TR-FRET of recombinant KRAS and RALGDS RID ([1]; RMC-7977 3.704 nM with CYPA): 0.755 and 0.7635 and 0.8193 and 0.729 | TR-FRET of recombinant KRAS and RALGDS RID ([1]; RMC-7977 11.111 nM with CYPA): 0.531 and 0.5523 and 0.5275 and 0.6425 | TR-FRET of recombinant KRAS and RALGDS RID ([1]; RMC-7977 33.333 nM with CYPA): 0.3432 and 0.2545 and 0.2295 and 0.2898 | TR-FRET of recombinant KRAS and RALGDS RID ([1]; RMC-7977 100.000 nM with CYPA): 0.19 and 0.03225 and 0.05775 and 0.042 | IC50 ([1]; recombinant, with CYPA): 0.014 µM | AH1 specific % of CD8+ cells [2]: 37.8% and 45.2% and 69.2% and 39.2% | CD8+ % of CD45+ cells [2]: 36.2% and 31.8% and 38.7% and 46.1% | CD45+ % of live cells [2]: 77.4% and 74.9% and 84.2% and 83.5% | binding to GMPPNP–KRAS [3]: neither RMC-7977 nor CYPA alone exhibited any measurable binding | Cellular milliBRET signal between CYPA and small GTPase protein ([4]; RMC-7977 1.524 nM): 0.03915 milliBRET and 0.5182 milliBRET and 0.5529 milliBRET and 0.4086 milliBRET and -0.3288 milliBRET and -0.1046 milliBRET | Cellular milliBRET signal between CYPA and small GTPase protein ([4]; RMC-7977 4.572 nM): 0.5753 milliBRET and 0.4746 milliBRET and 0.4726 milliBRET and 0.8392 milliBRET and 0.3184 milliBRET and -0.4343 milliBRET | Cellular milliBRET signal between CYPA and small GTPase protein ([4]; RMC-7977 13.717 nM): 1.433 milliBRET and 1.375 milliBRET and 1.967 milliBRET and 1.168 milliBRET and -0.05818 milliBRET and -0.1444 milliBRET | Cellular milliBRET signal between CYPA and small GTPase protein ([4]; RMC-7977 41.152 nM): 2.179 milliBRET and 2.7799 milliBRET and 3.446 milliBRET and 3.438 milliBRET and 1.092 milliBRET and 1.757 milliBRET | Cellular milliBRET signal between CYPA and small GTPase protein ([4]; RMC-7977 123.457 nM): 6.2456 milliBRET and 5.867 milliBRET and 7.851 milliBRET and 6.806 milliBRET and 4.695 milliBRET and 3.825 milliBRET | Cellular milliBRET signal between CYPA and small GTPase protein ([4]; RMC-7977 370.370 nM): 10.4854 milliBRET and 10.0017 milliBRET and 10.9416 milliBRET and 10.5658 milliBRET and 8.5015 milliBRET and 8.57 milliBRET | Cellular milliBRET signal between CYPA and small GTPase protein ([4]; RMC-7977 1111.111 nM): 11.032 milliBRET and 12.1599 milliBRET and 11.6879 milliBRET and 11.9893 milliBRET and 10.1243 milliBRET and 10.2861 milliBRET
